Assay results reported in patent US20130029936A1, “Inclusion Compounds of Fumagillol Derivative or its Salt, and Pharmaceutical Compositions Comprising the Same” (priority 2002, published 2013).
≈ marks a conversion by molar mass, not a printed value. Blank lines part the entries; values can stand above or below the compound they belong to.

Legend:
[1] = Solubility in hydroxypropyl-β-cyclodextrin solution (HPLC of filtrate); type: physicochemical; settings: 4° C., 72 hr
Method: (§1) O-(4-dimethylaminoethoxycinnamoyl)fumagillol (30 mg) was added to 1.5, 3.5, 7.0, 14.0, 28.0 w/v % hydroxypropyl-β-cyclodextrin solution, respectively, and stirred at 4° C. After 72 hr, the mixture was filtered with 0.2 μm membrabe filter and O-(4-dimethylaminoethoxycinnamoyl)fumagillol in the filtrate was determined by high pressure liquid chromatography (HPLC). The solubility of O-(4-dimethylamino ethoxycinnamoyl)fumagillol as a function of the hydroxypropyl-β-cyclodextrin concentration was represented in Table 1.
(§2) O-(3,4,5-trimethoxycinnamoyl)fumagillol (20 mg) was added to 1.5, 3.5, 7.0, 14.0, 28.0 w/v % hydroxypropyl-β-cyclodextrin solution, respectively, and stirred at 4° C. After 72 hr, the mixture was filtered with 0.2 μm membrabe filter and O-(3,4,5-trimethoxycinnamoyl)fumagillol in the filtrate was determined by high pressure liquid chromatography (HPLC). The solubility of O-(3,4,5-trimethoxycinnamoyl)fumagillol as a function of the hydroxypropyl-β-cyclodextrin concentration was shown in Table 3.

[2] = Solubility in sulfobutylether-7-β-cyclodextrin solution (HPLC of filtrate); type: physicochemical; settings: 4° C., 72 hr
Method: as §1, with “% sulfobutylether-7-β-cyclodextrin” for “% hydroxypropyl-β-cyclodextrin”, “of O-(4-dimethylaminoethoxycinnamoyl)fumagillol” for “of O-(4-dimethylamino ethoxycinnamoyl)fumagillol”, “the sulfobutylether-7-β-cyclodextrin” for “the hydroxypropyl-β-cyclodextrin”, “Table 2.” for “Table 1.”
as §2, with “% sulfobutylether-7-β-cyclodextrin” for “% hydroxypropyl-β-cyclodextrin”, “the sulfobutyletyher-7-β-cyclodextrin” for “the hydroxypropyl-β-cyclodextrin”, “Table 4.” for “Table 3.”

[3] = Stability of lyophilized powders under storage at 25° C. (residual amount by HPLC); type: physicochemical
Method: The stability of the lyophilized powders obtained in Example 6 was compared with that of O-(4-dimethylaminoethoxycinnamoyl)fumagillol alone under storage at 25° C. The residual amount of O-(4-dimethylaminoethoxycinnamoyl)fumagillol was determined by HPLC.
The stability of the lyophilized powders obtained in Example 7 was compared with that of O-(3,4,5-trimethoxycinnamoyl)fumagillol alone at 25° C. The residual amount of O-(3,4,5-trimethoxycinnamoyl)fumagillol was determined by HPLC.

[4] = Solubility in hydroxypropyl-β-cyclodextrin solution (HPLC of filtrate); type: physicochemical
[5] = Solubility in phosphate buffer (pH 6.7) containing hydroxypropyl-β-cyclodextrin; type: physicochemical; settings: 4° C., 72 hr
Method: O-(4-dimethylaminoethoxycinnamoyl)fumagillol (50 mg) was added to phosphate buffer (pH 6.7) containing 1.5, 3.5, 7.0 and 14.0 w/v % hydroxypropyl-β-cyclodextrin, respectively, and stirred at 4° C. After 72 hr, the mixture was filtered with 0.2 μm membrabe filter and O-(4-dimethylaminoethoxycinnamoyl)fumagillol in the filtrate was determined by high pressure liquid chromatography (HPLC). The solubility of O-(4-dimethylaminoethoxycinnamoyl)fumagillol as a function of the hydroxypropyl-β-cyclodextrin concentration was shown in Table 5.

[6] = Solubility evaluation with cosolvents and surfactants; type: physicochemical
Excerpt: However, these formulations have a number of disadvantages, which are the inability to guarantee the long-term stability due to facile hydrolysis in solution state, the inability to be buffered due to increased sensitivity to ions resulting in precipitation and further, the toxicity of the surfactants.

[7] = Stability (hydrolysis) in acidic, neutral and basic solutions at 50° C. with hydroxypropyl-β-cyclodextrin; type: physicochemical
Method: The stability of O-(4-dimethylaminoethoxycinnamoyl)fumagillol was investigated in the presence of various concentrations of hydroxypropyl-β-cyclodextrin in acidic, neutral and basic solutions at 50° C. The residual amount of O-(4-dimethylaminoethoxycinnamoyl)fumagillol in each solution was determined by HPLC.

Lewis lung carcinoma = experiment: Tumor growth inhibition, subcutaneously implanted Lewis lung carcinoma; type: in vivo; settings: BDF1 mice
Method: Pre-prepared tumor mass (Lewis lung carcinoma) of 8 mm^3 was subcutaneously implanted into the right axillary region of BDF1 mice (4 weeks). When the tumor size was 100-200 mm^3, mice were divided randomly into treatment group and control group. The treatment group was administered subcutaneously with O-(4-ethylaminoethoxycinnamoyl)fumagillol or the complex of O-(4-ethylaminoethoxycinnamoyl)fumagillol with hydroxypropyl-β-cyclodextrin at a dose of 30 mg/kg or 120 mg/kg as O-(4-ethylaminoethoxycinnamoyl)fumagillol every other day for 5 injections, while the control group was given injections of 0.2 ml of phosphate buffered saline. The tumors were weighed on the final day, and tumor volume was calculated using the following equation:
Tumor volume (mm^3)=a×b^2×0.5
(a: the longest diameter, b: the shortest diatheter) Inhibition ratio (IR %) of the treatment group relative to the untreated control group was calculated using the following equation:
=(1−Tumor volume of Treatment group/Tumor volume of Control group)×100
=(1−Tumor weight of Treatment group/Tumor weight of Control group)×100

[8] = cited from earlier work
[9] = 1.5 w/v % hydroxypropyl-β-cyclodextrin
[10] = 3.5 w/v % hydroxypropyl-β-cyclodextrin
[11] = 14.0 w/v % hydroxypropyl-β-cyclodextrin
[12] = 28.0 w/v % hydroxypropyl-β-cyclodextrin
[13] = 0 w/v % sulfobutylether-7-β-cyclodextrin
[14] = 1.5 w/v % sulfobutylether-7-β-cyclodextrin
[15] = 3.5 w/v % sulfobutylether-7-β-cyclodextrin
[16] = 14.0 w/v % sulfobutylether-7-β-cyclodextrin
[17] = 28.0 w/v % sulfobutylether-7-β-cyclodextrin
[18] = 0 w/v % hydroxypropyl-β-cyclodextrin, 4° C., 72 hr
[19] = Acidic (pH 3.2), 2 w/v % hydroxypropyl-β-cyclodextrin
[20] = Acidic (pH 3.2), 5 w/v % hydroxypropyl-β-cyclodextrin
[21] = Acidic (pH 3.2), 10 w/v % hydroxypropyl-β-cyclodextrin
[22] = Acidic (pH 3.2), 20 w/v % hydroxypropyl-β-cyclodextrin
[23] = Basic (pH 11.5), 2 w/v % hydroxypropyl-β-cyclodextrin
[24] = Basic (pH 11.5), 5 w/v % hydroxypropyl-β-cyclodextrin
[25] = Basic (pH 11.5), 10 w/v % hydroxypropyl-β-cyclodextrin
[26] = Basic (pH 11.5), 20 w/v % hydroxypropyl-β-cyclodextrin
[27] = Neutral (pH 7.2), 2 w/v % hydroxypropyl-β-cyclodextrin
[28] = Neutral (pH 7.2), 5 w/v % hydroxypropyl-β-cyclodextrin
[29] = Neutral (pH 7.2), 10 w/v % hydroxypropyl-β-cyclodextrin
[30] = Neutral (pH 7.2), 20 w/v % hydroxypropyl-β-cyclodextrin
[31] = Total Dose 150 mg/kg (30 mg/kg subcutaneously every other day, 5 injections)
[32] = Total Dose 600 mg/kg (120 mg/kg subcutaneously every other day, 5 injections)

Compound: COc1cc(C=CC(=O)OC2CCC3(CO3)C(C3(C)OC3CC=C(C)C)C2OC)cc(OC)c1OC (centres unmarked) [O-(3,4,5-trimethoxycinnamoyl)fumagillol]
Solubility [1, 9]: 430 µg/mL (≈ 0.856 mM)
Solubility [1, 10]: 1520 µg/mL (≈ 3.02 mM)
Solubility ([1]; 7.0 w/v % hydroxypropyl-β-cyclodextrin): 3540 µg/mL (≈ 7.04 mM)
Solubility [1, 11]: 6720 µg/mL (≈ 13.4 mM)
Solubility [1, 12]: 12020 µg/mL (≈ 23.9 mM)
Solubility [2, 13]: 2 µg/mL (≈ 0.00398 mM)
Solubility [2, 14]: 580 µg/mL (≈ 1.15 mM)
Solubility [2, 15]: 1380 µg/mL (≈ 2.75 mM)
Solubility ([2]; 7.0 w/v % sulfobutylether-7-β-cyclodextrin): 2750 µg/mL (≈ 5.47 mM)
Solubility [2, 16]: 5690 µg/mL (≈ 11.3 mM)
Solubility [2, 17]: 11670 µg/mL (≈ 23.2 mM)
Residual amount of O-(3,4,5-trimethoxycinnamoyl)fumagillol (%) after 1 month ([3]; 25° C., after 1 month): 65.3%
Solubility [4, 18]: 2 µg/mL (≈ 0.00398 mM)

Solubility [1, 9]: 1030 µg/mL (≈ 2.06 mM)
Solubility [1, 10]: 2930 µg/mL (≈ 5.86 mM)
Solubility [1, 11]: 11540 µg/mL (≈ 23.1 mM)
Solubility [1, 12]: 22640 µg/mL (≈ 45.3 mM)
Solubility [2, 13]: 50 µg/mL (≈ 0.1 mM)
Solubility [2, 14]: 870 µg/mL (≈ 1.74 mM)
Solubility [2, 15]: 2240 µg/mL (≈ 4.48 mM)
Solubility [2, 16]: 10430 µg/mL (≈ 20.9 mM)
Solubility [2, 17]: 21300 µg/mL (≈ 42.6 mM)
Solubility ([5]; phosphate buffer pH 6.7, 0 w/v % hydroxypropyl-β-cyclodextrin): 2380 µg/mL (≈ 4.76 mM)
Solubility ([5]; phosphate buffer pH 6.7, 1.5 w/v % hydroxypropyl-β-cyclodextrin): 4240 µg/mL (≈ 8.49 mM)
Solubility ([5]; phosphate buffer pH 6.7, 3.5 w/v % hydroxypropyl-β-cyclodextrin): 9860 µg/mL (≈ 19.7 mM)
Solubility ([5]; phosphate buffer pH 6.7, 7.0 w/v % hydroxypropyl-β-cyclodextrin): 17590 µg/mL (≈ 35.2 mM)
Solubility ([6]; aqueous formulation containing 10% Cremophor-EL alone): about 5 mg/ml
Solubility ([6]; aqueous formulation containing a mixture of 10% ethanol and 10% Tween 80): about 5 mg/ml
Residual amount of O-(4-dimethylaminoethoxycinnamoyl)fumagillol (%) after 1 month ([3]; storage at 25° C., after 1 month): 72.8%
Residual amount of O-(4-dimethylaminoethoxycinnamoyl)fumagillol (%) after 3 month ([3]; storage at 25° C., after 3 month): 54.3%
kobs (Hydrolysis Rate Constant) ([7]; Acidic (pH 3.2), 0 w/v % hydroxypropyl-β-cyclodextrin): 0.2042 h⁻¹
Inhibition ratio (%) [7, 19]: 52.20%
kobs (Hydrolysis Rate Constant) [7, 19]: 0.0976 h⁻¹
Inhibition ratio (%) [7, 20]: 58.47%
kobs (Hydrolysis Rate Constant) [7, 20]: 0.0848 h⁻¹
Inhibition ratio (%) [7, 21]: 63.08%
kobs (Hydrolysis Rate Constant) [7, 21]: 0.0754 h⁻¹
Inhibition ratio (%) [7, 22]: 67.43%
kobs (Hydrolysis Rate Constant) [7, 22]: 0.0665 h⁻¹
kobs (Hydrolysis Rate Constant) ([7]; Basic (pH 11.5), 0 w/v % hydroxypropyl-β-cyclodextrin): 0.0918 h⁻¹
Inhibition ratio (%) [7, 23]: 5.00%
kobs (Hydrolysis Rate Constant) [7, 23]: 0.0816 h⁻¹
Inhibition ratio (%) [7, 24]: 16.55%
kobs (Hydrolysis Rate Constant) [7, 24]: 0.0580 h⁻¹
Inhibition ratio (%) [7, 25]: 22.77%
kobs (Hydrolysis Rate Constant) [7, 25]: 0.0453 h⁻¹
Inhibition ratio (%) [7, 26]: 30.56%
kobs (Hydrolysis Rate Constant) [7, 26]: 0.0294 h⁻¹
kobs (Hydrolysis Rate Constant) ([7]; Neutral (pH 7.2), 0 w/v % hydroxypropyl-β-cyclodextrin): 0.0162 h⁻¹
Inhibition ratio (%) [7, 27]: 12.96%
kobs (Hydrolysis Rate Constant) [7, 27]: 0.0141 h⁻¹
Inhibition ratio (%) [7, 28]: 15.43%
kobs (Hydrolysis Rate Constant) [7, 28]: 0.0137 h⁻¹
Inhibition ratio (%) [7, 29]: 24.96%
kobs (Hydrolysis Rate Constant) [7, 29]: 0.0122 h⁻¹
Inhibition ratio (%) [7, 30]: 29.01%
kobs (Hydrolysis Rate Constant) [7, 30]: 0.0115 h⁻¹
Solubility [4, 18]: 50 µg/mL (≈ 0.1 mM)
increase of aqueous solubility ([4]; depending the pH and the concentration of hydroxypropyl-β-cyclodextrin or sulfobutylether-7-β-cyclodextrin): 20-1000 fold
Solubility ([4]; in water): 50 µg/mL (≈ 0.1 mM)
Compound: CO[C@@H]1[C@H](OC(=O)C=Cc2ccc(OCCN(C)C)cc2)CC[C@]2(CO2)[C@H]1[C@@]1(C)O[C@@H]1CC=C(C)C [O-(4-dimethylaminoethoxycinnamoyl)fumagillol]
Inhibition Ratio (%), Tumor Tissue Volume (Lewis lung carcinoma; [31]): 37.7%
Inhibition Ratio (%), Tumor Tissue Weight (Lewis lung carcinoma; [31]): 33.6%
Inhibition Ratio (%), Tumor Tissue Volume (Lewis lung carcinoma; [32]): 63.3%
Inhibition Ratio (%), Tumor Tissue Weight (Lewis lung carcinoma; [32]): 71.4%

Compound: OC[C@H]1O[C@@H]2O[C@H]3[C@H](O)[C@@H](O)[C@@H](O[C@H]4[C@H](O)[C@@H](O)[C@@H](O[C@H]5[C@H](O)[C@@H](O)[C@@H](O[C@H]6[C@H](O)[C@@H](O)[C@@H](O[C@H]7[C@H](O)[C@@H](O)[C@@H](O[C@H]8[C@H](O)[C@@H](O)[C@@H](O[C@H]1[C@H](O)[C@H]2O)O[C@@H]8CO)O[C@@H]7CO)O[C@@H]6CO)O[C@@H]5CO)O[C@@H]4CO)O[C@@H]3CO [β-cyclodextrin]
aqueous solubility [8]: 1.8 g per 100 ml of water
